Measurements as given in publication PMC5956543, “Antimicrobial and antioxidant activities of triterpenoid and phenolic derivatives from two Cameroonian Melastomataceae plants: Dissotis senegambiensis and Amphiblemma monticola” (BMC Complementary and Alternative Medicine, 2018).
Values after ≈ are worked out from the molar mass of the structure shown. Read-outs that look alike come from different tables or passages of the source.

Tests used:
[1] = Ferric reducing antioxidant power (FRAP) assay; conditions: Perl's Prussian blue at 700 nm; Fig. 2; BHT positive control
Method: The FRAP was determined by the Fe^3+-Fe^2+ transformation in the presence of extracts and compounds as previously described. The Fe^2+ was monitored by measuring the formation of Perl’s Prussian blue at 700 nm. Butylated hydroxytoluene (BHT) was used as a positive control. All the tests were performed in triplicate.

[2] = DPPH free radical scavenging assay; conditions: Fig. 3; vitamin C standard
Method: The free radical scavenging activity of extracts and compounds was evaluated according to described methods. The EC50 (μg/ml), which is the amount of sample necessary to inhibit by 50% the absorbance of free radical DPPH was calculated. Vitamin C was used as a standard control. All the analyses were carried out in triplicate.

S. aureus ATCC25923 = assay: Broth microdilution antimicrobial assay (MIC/MMC); format: cell-based, Staphylococcus aureus; conditions: for MIC / MBC: Staphylococcus aureus, 24 h; for MIC: 37 °C; for MBC: no growth after sub-culturing
Method: (§1) The microorganisms used in this study include four bacterial (Staphylococcus aureus ATCC25923, methicillin sensitive S. aureus MSSA1, methicillin resistant S. aureus MRSA3 and methicillin resistant S. aureus MRSA4) and three yeast strains (Candida albicans ATCC10231, Candida tropicalis PK233 and Cryptococcus neoformans H99). These microorganisms were taken from our laboratory collection. The fungal and bacterial strains were grown at 37 °C and maintained on Sabouraud Dextrose Agar (SDA, Conda, Madrid, Spain) and nutrient agar (NA, Conda) slants respectively.
(§2) The inocula of bacteria and yeasts were prepared from overnight cultures as previously described. Absorbance was read spectrophotometrically at 530 nm and 600 nm for yeasts and bacteria respectively. The final concentrations of microbial suspensions were 2.5 × 10^5 cells/mL for yeasts and 10^6 CFU/mL for bacteria.
(§3) The antimicrobial activity was evaluated by determining the minimum inhibitory concentrations (MICs). MICs of extracts and compounds were determined by broth micro dilution. Each test sample was dissolved in 10% v/v aqueous dimethylsulfoxide (DMSO) to give a stock solution. This was serially diluted two-fold in Mueller-Hinton Broth (MHB) for bacteria and Sabouraud Dextrose Broth (SDB) for fungi to obtain a concentration range of 4096 to 0.25 μg/mL. Then, 100 μL of each sample concentration was added to respective wells (96-well micro plate) containing 90 μL of SDB/ MHB and 10 μL of inoculum to give final concentration ranges of 2048 to 4 μg/mL (for extracts) and 256 to 0.125 μg/mL (for compounds). Dilutions of nystatin (Sigma-Aldrich, Steinheim, Germany) and ciprofloxacin (Sigma-Aldrich, Steinheim, Germany) were used as positive controls for yeasts and bacteria respectively. Broth with 10 μL of DMSO was used as negative control. The cultured micro plates were covered; then, the contents of each well were mixed thoroughly using a plate shaker (Flow Laboratory, Germany) and incubated at 37 °C for 24 h (bacteria) and 48 h (yeasts) under shaking. After the incubation period, MICs were assessed visually and were taken as the lowest sample concentration at which there was no growth or virtually no growth. The lowest concentration that yielded no growth after the sub-culturing was considered as the minimum microbicidal concentrations (MMCs). All the tests were performed in triplicate.

S. aureus MRSA3 = assay: Broth microdilution antimicrobial assay (MIC/MMC); format: cell-based, Staphylococcus aureus; conditions: for MMC/MIC / MBC / MIC: S. aureus MRSA3; for MBC / MIC: Staphylococcus aureus, 24 h; for MBC: no growth after sub-culturing; for MIC: 37 °C
Method: as §1, §2, §3

S. aureus MRSA4 = assay: Broth microdilution antimicrobial assay (MIC/MMC); format: cell-based, Staphylococcus aureus; conditions: for MMC/MIC / MBC / MIC: S. aureus MRSA4; for MBC / MIC: Staphylococcus aureus, 24 h; for MBC: no growth after sub-culturing; for MIC: 37 °C
Method: as §1, §2, §3

S. aureus MSSA1 = assay: Broth microdilution antimicrobial assay (MIC/MMC); format: cell-based, Staphylococcus aureus; conditions: for MIC / MBC: Staphylococcus aureus, 24 h; for MIC: 37 °C; for MBC: no growth after sub-culturing
Method: as §1, §2, §3

C. albicans ATCC10231 = assay: Broth microdilution antimicrobial assay (MIC/MMC); format: cell-based, Candida albicans; conditions: for MIC: Candida albicans, 37 °C, 48 h, read-out: MIC; for MMC: no growth after sub-culturing
Method: as §1, §2, §3

C. tropicalis PK233 = assay: Broth microdilution antimicrobial assay (MIC/MMC); format: cell-based, Candida tropicalis; conditions: for MIC / MFC: Candida tropicalis, 48 h; for MIC: 37 °C, read-out: MIC; for MFC: no growth after sub-culturing
Method: as §1, §2, §3

C. neoformans H99 = assay: Broth microdilution antimicrobial assay (MIC/MMC); format: cell-based, Cryptococcus neoformans; conditions: for MIC / MFC: Cryptococcus neoformans, 48 h; for MIC: 37 °C, read-out: MIC; for MFC: no growth after sub-culturing
Method: as §1, §2, §3

[3] = system: bacterial and fungal strains; assay: Broth microdilution MIC, range over all tested strains; format: cell-based
Method: as §1, §2, §3

S. aureus strains = assay: Broth microdilution MIC, range over the S. aureus strains; format: cell-based; conditions: Staphylococcus aureus; range over the four S. aureus strains
Method: as §1, §2
The antimicrobial activity was evaluated by determining the minimum inhibitory concentrations (MICs). MICs of extracts and compounds were determined by broth micro dilution. Each test sample was dissolved in 10% v/v aqueous dimethylsulfoxide (DMSO) to give a stock solution. […] After the incubation period, MICs were assessed visually and were taken as the lowest sample concentration at which there was no growth or virtually no growth. […]

[4] = range over all bacterial and fungal strains, read-out: MIC

In the case of `CC1(C)CC[C@]2(C(=O)O)CC[C@]3(C)C(=CC[C@@H]4[C@@]5(C)CC[C@H](O)C(C)(C)[C@@H]5CC[C@]43C)[C@@H]2C1` [Compound 13, oleanolic acid], the “reducing power (FRAP, in words)” value [1] is reported as “not active” and the “DPPH radical-scavenging activity (in words)” value [2] is reported as “not active”.

With `O=c1cc(-c2ccc(O)cc2)oc2c([C@@H]3O[C@H](CO)[C@@H](O)[C@H](O)[C@H]3O)c(O)cc(O)c12` [Compound 5, vitexin] the MMC/MIC (S. aureus ATCC25923) was 2, the MIC (S. aureus ATCC25923) was 64 mg/L (≈ 148 µM) and the MBC (S. aureus ATCC25923) was 128 mg/L (≈ 296 µM). The MMC/MIC (S. aureus MRSA3) was 2, the MBC (S. aureus MRSA3) was 128 mg/L (≈ 296 µM) and the MIC (S. aureus MRSA3) was 64 mg/L (≈ 148 µM). For the same compound, the MMC/MIC (S. aureus MRSA4) was 2, the MBC (S. aureus MRSA4) was 256 mg/L (≈ 592 µM) and the MIC (S. aureus MRSA4) was 128 mg/L (≈ 296 µM). It also gave an MMC/MIC (S. aureus MSSA1) of 2, an MIC (S. aureus MSSA1) of 64 mg/L (≈ 148 µM) and an MBC (S. aureus MSSA1) of 128 mg/L (≈ 296 µM). It also gave an MMC/MIC (C. albicans ATCC10231) of 2, an MIC (C. albicans ATCC10231) of 128 mg/L (≈ 296 µM) and an MMC (C. albicans ATCC10231) of 256 µg/mL. It also gave an MMC/MIC (C. tropicalis PK233) of 2, an MIC (C. tropicalis PK233) of 64 mg/L (≈ 148 µM) and an MFC (C. tropicalis PK233) of 128 mg/L (≈ 296 µM). The MMC/MIC (C. neoformans H99) was 1, the MIC (C. neoformans H99) was 128 mg/L (≈ 296 µM) and the MFC (C. neoformans H99) was 128 mg/L (≈ 296 µM). It also gave an MIC [3] of 64 to 128 mg/L (≈ 148 to 296 µM).

In the case of `C[C@H]1[C@H](C)CC[C@]2(C(=O)O)CC[C@]3(C)C(=CC[C@@H]4[C@@]5(C)CC[C@H](O)C(C)(C)[C@@H]5CC[C@]43C)[C@H]12` [Compound 3, ursolic acid], the MIC (S. aureus ATCC25923) is reported as 256 mg/L (≈ 561 µM), the MBC (S. aureus ATCC25923) is reported as > 256 mg/L and the MBC (S. aureus MRSA3) is reported as > 256 mg/L. For the same compound, the MIC (S. aureus MRSA3) was 128 mg/L (≈ 280 µM), the MBC (S. aureus MRSA4) was > 256 mg/L and the MIC (S. aureus MRSA4) was 128 mg/L (≈ 280 µM). The MIC (S. aureus MSSA1) was 128 mg/L (≈ 280 µM), the MBC (S. aureus MSSA1) was > 256 mg/L and the MIC (C. albicans ATCC10231) was 256 mg/L (≈ 561 µM). The MMC (C. albicans ATCC10231) was > 256 µg/mL, the MIC (C. tropicalis PK233) was 256 mg/L (≈ 561 µM) and the MFC (C. tropicalis PK233) was > 256 mg/L. For the same compound, the MIC (C. neoformans H99) was 128 mg/L (≈ 280 µM), the MFC (C. neoformans H99) was > 256 mg/L and the “antimicrobial activity (in words)” value ([3]; all the tested bacterial and fungal species) was “active against all the tested bacterial and fungal species”. It also gave an MIC [3, 4] of 128 to 256 mg/L (≈ 280 to 561 µM).

Compound `COc1cc2c(=O)oc3c(OC)c(O)cc4c(=O)oc(c1O)c2c34` [Compound 7, 3,4′-di-O-methylellagic acid] has an MMC/MIC (S. aureus ATCC25923) of 1, an MIC (S. aureus ATCC25923) of 32 mg/L (≈ 96.9 µM) and an MBC (S. aureus ATCC25923) of 32 mg/L (≈ 96.9 µM). For the same compound, the “activity against methicillin-resistant S. aureus (in words)” value (S. aureus MRSA3; MRSA3) was “prominent activity”, the MMC/MIC (S. aureus MRSA3) was 2 and the MBC (S. aureus MRSA3) was 32 mg/L (≈ 96.9 µM). The MIC (S. aureus MRSA3) was 16 mg/L (≈ 48.4 µM), the “activity against methicillin-resistant S. aureus (in words)” value (S. aureus MRSA4; MRSA4) was “prominent activity” and the MMC/MIC (S. aureus MRSA4) was 2. It also gave an MBC (S. aureus MRSA4) of 64 mg/L (≈ 194 µM), an MIC (S. aureus MRSA4) of 32 mg/L (≈ 96.9 µM) and an MMC/MIC (S. aureus MSSA1) of 1. The MIC (S. aureus MSSA1) was 16 mg/L (≈ 48.4 µM), the MBC (S. aureus MSSA1) was 16 mg/L (≈ 48.4 µM) and the MMC/MIC (C. albicans ATCC10231) was 2. The MIC (C. albicans ATCC10231) was 32 mg/L (≈ 96.9 µM), the MMC (C. albicans ATCC10231) was 64 µg/mL and the MMC/MIC (C. tropicalis PK233) was 2. For the same compound, the MIC (C. tropicalis PK233) was 32 mg/L (≈ 96.9 µM), the MFC (C. tropicalis PK233) was 64 mg/L (≈ 194 µM) and the MMC/MIC (C. neoformans H99) was 1. For the same compound, the MIC (C. neoformans H99) was 32 mg/L (≈ 96.9 µM), the MFC (C. neoformans H99) was 32 mg/L (≈ 96.9 µM) and the “reducing power (FRAP, in words)” value [1] was “lowest reducing power”. For the same compound, the “DPPH radical-scavenging activity (in words)” value [2] was “highest EC50”, the MIC (S. aureus strains) was 16 to 32 mg/L (≈ 48.4 to 96.9 µM) and the MIC [3, 4] was 16 to 32 mg/L (≈ 48.4 to 96.9 µM).

For `O=C(O)c1cn(C2CC2)c2cc(N3CCNCC3)c(F)cc2c1=O` [Ciprofloxacin, reference compound], the MMC/MIC (S. aureus ATCC25923) was 1, the MIC (S. aureus ATCC25923) was 1 mg/L (≈ 3.02 µM) and the MBC (S. aureus ATCC25923) was 1 mg/L (≈ 3.02 µM). The MMC/MIC (S. aureus MRSA3) was 1, the MBC (S. aureus MRSA3) was 16 mg/L (≈ 48.3 µM) and the MIC (S. aureus MRSA3) was 16 mg/L (≈ 48.3 µM). The MMC/MIC (S. aureus MRSA4) was 1, the MBC (S. aureus MRSA4) was 32 mg/L (≈ 96.6 µM) and the MIC (S. aureus MRSA4) was 32 mg/L (≈ 96.6 µM). It also gave an MMC/MIC (S. aureus MSSA1) of 1, an MIC (S. aureus MSSA1) of 1 mg/L (≈ 3.02 µM) and an MBC (S. aureus MSSA1) of 1 mg/L (≈ 3.02 µM).
